What was measured:
[1] = target: T1, Endonuclease 8-like 2 (Homo sapiens) (UniProt Q969S2); settings: Compound Concentration 10.0 uM, Hit No;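 note: fluorescence at 594 nm reports NEIL2 cutting and release of a quenched double-stranded DNA oligo substrate, reduced signal read as inhibition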
T1 sequence (whole entry): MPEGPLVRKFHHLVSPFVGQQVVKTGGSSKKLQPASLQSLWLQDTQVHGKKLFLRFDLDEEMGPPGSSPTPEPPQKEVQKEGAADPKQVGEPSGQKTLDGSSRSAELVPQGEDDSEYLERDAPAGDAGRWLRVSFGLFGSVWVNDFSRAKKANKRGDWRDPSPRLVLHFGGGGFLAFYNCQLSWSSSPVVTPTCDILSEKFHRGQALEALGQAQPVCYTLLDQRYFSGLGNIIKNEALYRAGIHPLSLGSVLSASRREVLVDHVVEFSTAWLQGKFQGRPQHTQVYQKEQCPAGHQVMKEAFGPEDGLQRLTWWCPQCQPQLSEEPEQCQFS
Description: Inhibition of NEIL2 by quantifying inhibition of NEIL2-mediated cleavage and dissociation of quenched duplex DNA oligonucleotides, measured as fluorescence at 594 nm.

[2] = target: Uracil-DNA glycosylase (Homo sapiens) (UniProt P13051); settings: Hit No;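 note: UNG excision on a quenched double-stranded DNA oligo probe, with APE1 added for strand incision and turnover, read as fluorescence at 594 nm as strands separate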
Uracil-DNA glycosylase (Homo sapiens), sequence (P13051 whole entry): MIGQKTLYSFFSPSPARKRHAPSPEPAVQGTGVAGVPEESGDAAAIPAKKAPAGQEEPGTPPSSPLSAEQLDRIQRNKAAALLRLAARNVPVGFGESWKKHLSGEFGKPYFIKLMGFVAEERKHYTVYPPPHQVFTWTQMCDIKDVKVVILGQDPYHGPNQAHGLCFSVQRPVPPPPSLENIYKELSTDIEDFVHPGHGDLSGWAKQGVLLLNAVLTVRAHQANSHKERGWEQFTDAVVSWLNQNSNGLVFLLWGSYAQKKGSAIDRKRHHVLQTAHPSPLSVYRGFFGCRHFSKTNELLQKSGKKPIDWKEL
Description: Inhibition of UNG by quantifying inhibition of UNG-mediated cleavage and dissociation of quenched duplex DNA oligonucleotides, measured as fluorescence at 594 nm. To generate a functional strand incision and increase turn-over this assay is coupled to APE1.

[3] = target: G/T mismatch-specific thymine DNA glycosylase (Homo sapiens) (UniProt Q13569);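 note: human TDG cleavage of quenched duplex DNA oligonucleotides coupled to APE1, strand release read as fluorescence at 594 nm, inhibition of TDG activity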
G/T mismatch-specific thymine DNA glycosylase (Homo sapiens), sequence (Q13569 whole entry): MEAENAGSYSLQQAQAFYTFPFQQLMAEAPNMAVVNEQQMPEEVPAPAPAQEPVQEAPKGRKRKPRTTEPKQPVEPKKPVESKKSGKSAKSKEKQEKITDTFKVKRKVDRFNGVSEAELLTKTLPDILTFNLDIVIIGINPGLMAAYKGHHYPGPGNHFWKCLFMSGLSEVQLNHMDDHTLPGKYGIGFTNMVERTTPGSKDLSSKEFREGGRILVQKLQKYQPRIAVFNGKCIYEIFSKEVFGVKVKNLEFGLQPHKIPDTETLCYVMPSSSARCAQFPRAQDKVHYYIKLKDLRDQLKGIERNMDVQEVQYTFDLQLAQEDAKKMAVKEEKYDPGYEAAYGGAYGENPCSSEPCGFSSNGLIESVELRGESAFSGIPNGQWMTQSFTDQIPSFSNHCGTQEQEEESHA
Description: Inhibition of TDG by quantifying inhibition of TDG-mediated cleavage and dissociation of quenched duplex DNA oligonucleotides, measured as fluorescence at 594 nm. To generate a functional strand incision and increase turn-over this assay is coupled to APE1.

[4] = target: T2, Endonuclease III-like protein 1 (Homo sapiens) (UniProt P78549); settings: Hit No;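 note: enzyme assay tracking NTHL1 cutting and release of a quenched double-stranded DNA oligo substrate, read as fluorescence at 594 nm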
T2 sequence (whole entry): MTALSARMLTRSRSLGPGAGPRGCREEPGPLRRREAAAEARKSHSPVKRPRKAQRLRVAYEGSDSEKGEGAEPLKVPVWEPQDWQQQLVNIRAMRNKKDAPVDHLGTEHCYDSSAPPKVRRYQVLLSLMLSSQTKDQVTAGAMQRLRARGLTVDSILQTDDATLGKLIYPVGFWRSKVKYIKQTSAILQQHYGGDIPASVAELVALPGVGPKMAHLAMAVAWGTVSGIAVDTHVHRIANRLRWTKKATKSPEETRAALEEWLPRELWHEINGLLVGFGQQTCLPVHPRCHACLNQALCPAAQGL
Description: Inhibition of NTHL1 by quantifying inhibition of NTHL1-mediated cleavage and dissociation of quenched duplex DNA oligonucleotides, measured as fluorescence at 594 nm.

[5] = target: N-glycosylase/DNA lyase (Homo sapiens) (UniProt O15527);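 note: OGG1 cleavage of a quenched duplex DNA oligonucleotide, coupled to APE1 for strand incision, read as fluorescence at 594 nm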
N-glycosylase/DNA lyase (Homo sapiens), sequence (O15527 whole entry): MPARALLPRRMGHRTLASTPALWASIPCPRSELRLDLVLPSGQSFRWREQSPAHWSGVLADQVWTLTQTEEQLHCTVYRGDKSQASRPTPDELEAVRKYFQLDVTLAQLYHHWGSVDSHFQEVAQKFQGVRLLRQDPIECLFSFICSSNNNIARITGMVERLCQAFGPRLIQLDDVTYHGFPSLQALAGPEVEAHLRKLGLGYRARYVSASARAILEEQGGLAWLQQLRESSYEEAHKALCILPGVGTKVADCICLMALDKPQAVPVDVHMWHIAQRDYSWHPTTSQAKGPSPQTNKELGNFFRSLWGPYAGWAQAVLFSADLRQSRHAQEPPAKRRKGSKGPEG
Description: Inhibition of OGG1 by quantifying inhibition of OGG1-mediated cleavage and dissociation of quenched duplex DNA oligonucleotides, measured as fluorescence at 594 nm. To generate a functional strand incision and increase turn-over this assay is coupled to APE1.

[6] = target: T3, Adenine DNA glycosylase (Homo sapiens) (UniProt Q9UIF7); settings: Hit No;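 note: human MUTYH activity read as 594 nm fluorescence from cleavage and release of a quenched DNA duplex, coupled with APE1 for strand incision, lower signal meaning inhibition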
T3 sequence (whole entry): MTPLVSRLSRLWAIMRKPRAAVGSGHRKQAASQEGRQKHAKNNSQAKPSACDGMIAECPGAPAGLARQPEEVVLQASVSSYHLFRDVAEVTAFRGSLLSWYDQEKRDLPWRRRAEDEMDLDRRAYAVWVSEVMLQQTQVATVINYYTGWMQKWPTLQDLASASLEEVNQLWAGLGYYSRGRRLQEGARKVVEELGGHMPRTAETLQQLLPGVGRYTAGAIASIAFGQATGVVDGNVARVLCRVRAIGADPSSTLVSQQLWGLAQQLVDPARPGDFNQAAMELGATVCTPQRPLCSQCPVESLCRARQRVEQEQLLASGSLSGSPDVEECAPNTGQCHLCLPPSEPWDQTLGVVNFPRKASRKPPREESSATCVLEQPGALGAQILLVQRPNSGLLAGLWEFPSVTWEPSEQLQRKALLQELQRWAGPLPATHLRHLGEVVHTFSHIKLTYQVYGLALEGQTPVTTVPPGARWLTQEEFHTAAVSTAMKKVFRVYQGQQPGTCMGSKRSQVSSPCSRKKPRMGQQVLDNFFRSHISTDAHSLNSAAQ
Description: Inhibition of MUTYH by quantifying inhibition of MUTYH-mediated cleavage and dissociation of quenched duplex DNA oligonucleotides, measured as fluorescence at 594 nm. To generate a functional strand incision and increase turn-over this assay is coupled to APE1.

[7] = target: Methyl-CpG-binding domain protein 4 (Homo sapiens) (UniProt O95243);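 note: MBD4 activity read as fluorescence at 594 nm from cleavage and release of a quenched duplex DNA oligonucleotide, with APE1 coupled to incise the strand and raise turnover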
Methyl-CpG-binding domain protein 4 (Homo sapiens), sequence (O95243 whole entry, the tested form may be a part): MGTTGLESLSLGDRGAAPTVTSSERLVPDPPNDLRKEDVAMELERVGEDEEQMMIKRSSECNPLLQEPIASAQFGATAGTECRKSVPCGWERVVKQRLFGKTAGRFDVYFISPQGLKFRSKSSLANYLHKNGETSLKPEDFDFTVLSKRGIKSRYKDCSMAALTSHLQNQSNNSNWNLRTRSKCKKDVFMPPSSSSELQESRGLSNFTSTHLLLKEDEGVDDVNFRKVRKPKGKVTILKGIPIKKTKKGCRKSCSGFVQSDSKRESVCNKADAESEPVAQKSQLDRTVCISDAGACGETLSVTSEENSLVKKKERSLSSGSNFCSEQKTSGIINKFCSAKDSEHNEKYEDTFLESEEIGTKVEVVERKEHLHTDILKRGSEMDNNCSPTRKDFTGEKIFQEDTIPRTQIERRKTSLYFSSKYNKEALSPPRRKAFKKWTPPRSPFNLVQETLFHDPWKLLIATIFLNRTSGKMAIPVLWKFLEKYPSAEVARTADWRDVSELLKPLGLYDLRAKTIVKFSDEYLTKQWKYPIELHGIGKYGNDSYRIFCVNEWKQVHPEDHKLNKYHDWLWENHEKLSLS
Description: Inhibition of MBD4 by quantifying inhibition of MBD4-mediated cleavage and dissociation of quenched duplex DNA oligonucleotides, measured as fluorescence at 594 nm. To generate a functional strand incision and increase turn-over this assay is coupled to APE1.

[8] = target: T4, Single-strand selective monofunctional uracil DNA glycosylase (Homo sapiens) (UniProt Q53HV7); settings: Hit No;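 note: enzymatic SMUG1 assay coupled with APE1, reading fluorescence at 594 nm released when a quenched double-stranded DNA oligonucleotide substrate is cleaved and separated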
T4 sequence (whole entry): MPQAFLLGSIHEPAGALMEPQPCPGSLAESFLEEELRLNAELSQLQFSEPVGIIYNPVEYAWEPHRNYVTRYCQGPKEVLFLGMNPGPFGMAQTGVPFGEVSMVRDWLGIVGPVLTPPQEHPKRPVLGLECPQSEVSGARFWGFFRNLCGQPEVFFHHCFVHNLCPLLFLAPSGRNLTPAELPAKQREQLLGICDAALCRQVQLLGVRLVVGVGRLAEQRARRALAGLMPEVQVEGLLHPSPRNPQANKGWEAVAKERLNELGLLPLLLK
Description: Inhibition of SMUG1 by quantifying inhibition of SMUG1-mediated cleavage and dissociation of quenched duplex DNA oligonucleotides, measured as fluorescence at 594 nm. To generate a functional strand incision and increase turn-over this assay is coupled to APE1.

[9] = target: Endonuclease 8-like 1 (Homo sapiens) (UniProt Q96FI4); settings: Hit No;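 note: fluorescence at 594 nm from quenched duplex DNA oligonucleotides released by NEIL1 cleavage and strand separation, reported as reduction of this enzyme activity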
Endonuclease 8-like 1 (Homo sapiens), sequence (Q96FI4 whole entry): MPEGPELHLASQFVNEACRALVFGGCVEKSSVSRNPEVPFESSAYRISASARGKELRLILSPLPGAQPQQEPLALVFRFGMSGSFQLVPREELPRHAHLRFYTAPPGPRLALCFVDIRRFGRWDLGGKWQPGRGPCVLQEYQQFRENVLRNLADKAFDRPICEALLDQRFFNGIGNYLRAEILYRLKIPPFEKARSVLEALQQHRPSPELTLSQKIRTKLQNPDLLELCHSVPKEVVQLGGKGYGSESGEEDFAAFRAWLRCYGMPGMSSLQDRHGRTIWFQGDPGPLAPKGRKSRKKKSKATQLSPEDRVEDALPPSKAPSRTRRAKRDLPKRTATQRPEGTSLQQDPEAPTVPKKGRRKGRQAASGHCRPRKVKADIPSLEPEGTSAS
Description: Inhibition of NEIL1 by quantifying inhibition of NEIL1-mediated cleavage and dissociation of quenched duplex DNA oligonucleotides, measured as fluorescence at 594 nm.

[10] = Compound Concentration 10.0 uM, Hit No
[11] = Compound Concentration 1.0 uM, Hit No
[12] = Compound Concentration 10.0 uM, Hit Yes

Row | inhibition ([2]; Compound Concentration 10.0 uM) | inhibition [3, 10] | inhibition ([4]; Compound Concentration 10.0 uM) | inhibition [5, 10] | inhibition ([6]; Compound Concentration 10.0 uM) | inhibition [7, 10] | inhibition ([8]; Compound Concentration 10.0 uM) | inhibition ([9]; Compound Concentration 10.0 uM) | Compound | also measured
1 | 1.95% | 37.2% | 3.97% | -5.03% | -7.15% | 54.4% | 5.39% | – | CCC(=O)N[C@@H]1CC[C@H](C(=O)N(C)c2ccc(-c3nc4ccccc4o3)cc2)C1 | inhibition [1]: 4.61%
2 | 1.59% | 33.1% | 2.18% | 1.25% | -1.88% | 5.39% | 13.4% | 4.23% | COc1cc(N(C)c2ccnc3ccc(C(F)(F)F)cc23)cc(OC)c1OC | –
3 | 1.63% | 47.2% | -6.55% | 2.2% | 22.8% | 61% | 9.09% | – | CC(=O)Nc1c(C(C)=O)c(=O)n(C)c2nc(-c3ccc(Cl)cc3Cl)c(-c3ccc(Cl)cc3)cc12 | inhibition [1]: 5.63%
4 | – | – | – | – | – | – | – | – | COCCOc1nc(-c2ccc(Cl)nc2)nc2c1CN(C(=O)c1ncn3ccccc13)CC2 | inhibition ([2]; Compound Concentration 1.0 uM): -0.22%; inhibition ([9]; Compound Concentration 1.0 uM): -3.17%; inhibition [3, 11]: 39.9%; inhibition ([4]; Compound Concentration 1.0 uM): -3.92%; inhibition [5, 11]: -1.84%; inhibition ([6]; Compound Concentration 1.0 uM): -6.39%; inhibition [7, 11]: 67.8%; inhibition ([8]; Compound Concentration 1.0 uM): 8.24%
5 | 2.95% | 38% | 12.6% | 12.9% | 6.32% | -5.03% | 16.5% | – | Cc1nc(NC(=O)N2CCC[C@H]2C(N)=O)sc1-c1ccnc(C(C)(C)C(F)(F)F)c1 | –
6 | 6.61% | 38.4% | -2.7% | -5.59% | 36.6% | -7.39% | 19.6% | -0.787% | CN(C)C(=O)N1CC[C@H](NC2=Nc3cc(F)ccc3N(CC(F)F)c3ccc(Cl)cc32)C1 | –
7 | 3.04% | 39% | -8.98% | 32.2% | 27.8% | -9.13% | 24.3% | -2.64% | O=C(NCc1ccccc1)c1ccc(S(=O)(=O)NCc2ccccc2)cc1 | –
8 | 1.33% | 35.4% | 0.685% | 3.33% | -6.66% | 54.1% | 18.6% | -4.68% | CCOCCn1cc(C(=O)Nc2ccc(-n3nc(-c4cccnc4)cc3C(F)(F)F)cn2)ccc1=O | –
9 | – | – | – | – | – | – | – | – | CN(C)C(=O)Cn1cc(-c2ccc(-c3nnc4ccccn34)cc2)cn1 | inhibition ([2]; Compound Concentration 1.0 uM): 2.39%; inhibition ([9]; Compound Concentration 1.0 uM): -1.84%; inhibition ([3]; Compound Concentration 1.0 uM, Hit Yes): 100%; inhibition ([4]; Compound Concentration 1.0 uM): -9.68%; inhibition [5, 11]: 3.29%; inhibition ([6]; Compound Concentration 1.0 uM): 27.4%; inhibition [7, 11]: 7.42%; inhibition ([8]; Compound Concentration 1.0 uM): 22.7%
10 | 2.17% | 37.3% | 1.48% | 6.26% | 1.28% | -7.12% | 20.8% | – | O[C@H]1CC[C@H](Nc2ncc3nc(Nc4c(F)cc(F)cc4F)n([C@H]4CCOC4)c3n2)CC1 | –
11 | – | – | – | – | – | – | – | – | c1ccc(-c2oc3ncnc(NC[C@@H]4CCCO4)c3c2-c2ccccc2)cc1 | inhibition ([2]; Compound Concentration 1.0 uM): 4.04%; inhibition ([9]; Compound Concentration 1.0 uM): -7.66%; inhibition [3, 11]: 35.9%; inhibition ([4]; Compound Concentration 1.0 uM): 7.06%; inhibition [5, 11]: 6.47%; inhibition ([6]; Compound Concentration 1.0 uM): 3.16%; inhibition [7, 11]: 18.1%; inhibition ([8]; Compound Concentration 1.0 uM): 21.6%
12 | – | – | – | – | – | – | – | – | COC[C@H](NC(=O)c1ccn(S(C)(=O)=O)c1)C(=O)Nc1nc(-c2cccc(-c3ccn(C)n3)c2)cs1 | inhibition ([2]; Compound Concentration 1.0 uM): 4.22%; inhibition [3, 11]: 48.2%; inhibition ([4]; Compound Concentration 1.0 uM): -3.92%; inhibition [5, 11]: -7.59%; inhibition ([6]; Compound Concentration 1.0 uM): 2.68%; inhibition [7, 11]: 43.1%; inhibition ([8]; Compound Concentration 1.0 uM): 16.9%
13 | -4.5% | 48% | 2% | -4.39% | -9.23% | 53.9% | 3.85% | – | CCn1c(=O)c(C)cn(Cc2nnc(-c3ccc(F)c(O)c3F)s2)c1=O | –
14 | 1.96% | – | 8% | 3.9% | 93.4% | – | -6.4% | 4.6% | CN(C)CCN(Cc1ccc(-c2ccc(CNCCc3ccccc3)cc2)cc1)C(=O)CCC1CCCC1 | inhibition [3, 12]: 80.3%; inhibition [7, 12]: 78.7%
15 | 4.09% | 51.5% | -0.61% | 22.7% | 6.44% | 1.23% | 16.9% | -0.391% | CC(C)(C)c1ccc(C(=O)Nc2cn3cc(-n4ccnc4)ccc3n2)cc1 | –
16 | – | – | – | – | – | – | – | – | CNC(=O)Nc1ccc2c(c1)CC[C@@]21OC(=O)N(CC(=O)N(Cc2ccc(F)cc2)[C@@H](C)C(F)(F)F)C1=O | inhibition ([2]; Compound Concentration 1.0 uM): 5.87%; inhibition ([9]; Compound Concentration 1.0 uM): -8.77%; inhibition [3, 11]: 100%; inhibition ([4]; Compound Concentration 1.0 uM): -7.2%; inhibition [5, 11]: -4.69%; inhibition ([6]; Compound Concentration 1.0 uM): 0.168%; inhibition [7, 11]: 58.8%; inhibition ([8]; Compound Concentration 1.0 uM): 13.6%
17 | – | – | – | – | – | – | – | – | CC(C)(O)c1ccc(N2Cc3c(ccnc3-c3ccc(F)cc3OCC(F)(F)F)C2=O)cc1 | inhibition ([2]; Compound Concentration 1.0 uM): 3.14%; inhibition ([9]; Compound Concentration 1.0 uM): -3.02%; inhibition [3, 11]: 51.2%; inhibition ([4]; Compound Concentration 1.0 uM): -1.95%; inhibition [5, 11]: -2.43%; inhibition ([6]; Compound Concentration 1.0 uM): -6.44%; inhibition [7, 11]: 55.3%; inhibition ([8]; Compound Concentration 1.0 uM): 2.79%
18 | 0.574% | 52% | 11.9% | – | -7.97% | 61.9% | 19% | -4.38% | C[C@H](CCOc1cccc(CC(=O)O)c1)N(Cc1cccc(C(F)(F)F)c1Cl)CC(c1ccccc1)c1ccccc1 | inhibition [5, 12]: 103%
19 | 3.96% | 98.4% | 2% | -2.23% | 9.89% | 64.1% | 18% | -1.5% | C[C@@H]1CN(c2cc(-c3n[nH]c4ccc(OC5(C)CC5)cc34)ncn2)C[C@H](C)O1 | inhibition ([2]; Compound Concentration 1.0 uM): 7.33%; inhibition ([9]; Compound Concentration 1.0 uM): -2.64%; inhibition [3, 11]: 48.1%; inhibition ([4]; Compound Concentration 1.0 uM): -1.31%; inhibition [5, 11]: 12.9%; inhibition ([6]; Compound Concentration 1.0 uM): -7.22%; inhibition [7, 11]: 12.4%; inhibition ([8]; Compound Concentration 1.0 uM): 23.1%
20 | 1.28% | 59.6% | 0.685% | -5.03% | 10.4% | 55.9% | 19.9% | – | Cc1nccc(COC(=O)N2C[C@@H]3[C@@H](CNC(=O)c4ccc5[nH]nnc5c4)[C@@H]3C2)n1 | –
21 | – | 9.57% | -8.34% | -3.29% | 2.84% | 2.07% | -0.808% | -6.13% | CC(C)(C)NC[C@H](O)COc1nsnc1N1CCOCC1 | inhibition [1]: -5.47%
22 | – | 3.04% | 17.3% | -2.53% | 3.09% | -3.22% | -0.227% | -0.204% | O=C1N/C(=N/c2ccccc2F)S/C1=C\c1ccc(C(=O)O)cc1 | inhibition [1]: 3.51%

Row | Compound | inhibition ([2]; Compound Concentration 10.0 uM) | inhibition [3, 10] | inhibition ([4]; Compound Concentration 10.0 uM) | inhibition [5, 10] | inhibition ([6]; Compound Concentration 10.0 uM) | inhibition [7, 10] | inhibition ([8]; Compound Concentration 10.0 uM) | inhibition ([9]; Compound Concentration 10.0 uM) | also measured
23 | COc1ccc(OC(=O)N(CC(=O)O)Cc2ccc(OCCc3nc(-c4ccccc4)oc3C)cc2)cc1 | 3.56% | 53.7% | 5.94% | 27% | 29.2% | 67.6% | 20.2% | – | –
24 | Cn1cncc1[C@@](O)(COc1ccc(C#N)cc1-c1ccc(OC(F)(F)F)cc1)c1ccc(C#N)cc1 | -3.07% | 45.8% | 7.26% | 10.2% | -9.72% | 56% | -1.81% | – | –

From ChEMBL document CHEMBL5665443, “Enzyme Inhibitor Single Concentration assay results for EUbOPEN Chemogenomics Library” (2024)
